Results from patent US7901692B2, “Nontypeable Haemophilus influenzae virulence factors” (Nationalwide Children's Hospital, Inc., priority 2003, dated 2011).

Key:
NTHi sapF::mTn5 mutants = assay: Broth minimal inhibitory concentration (MIC) analysis for protamine; format: cell-based, nontypeable Haemophilus influenzae
Text: To ensure no secondary mutation in the original sapF::mTn5 mutant contributed to the various phenotypes of this mutant, the parent strain 86-028NP was transformed with the 6 kb EcoRV fragment containing the sapF::mTn5 allele from the pBlueA1 plasmid. The wild type sapF gene was replaced in this strain by homologous recombination with the sapF::mTn5 allele. One Km resistant clone was confirmed to harbor a miniTn5 interrupted sapF gene by PCR and Southern blot analysis. This clone was further characterized together with the sapF::mTn5 strain and designated RcsapF::mTn5.
(§1) Since the sap mutants of S. typhimurium and E. chrysanthemi were reported to be hypersensitive to certain antimicrobial peptides, sensitivity to several commercial available cationic peptides against the NTHi parent and the sapF mutant strains was analyzed. […] Broth minimal inhibitory concentration (MIC) analyses for protamine determined that the MIC of protamine for the sapF::mTn5 mutants was lower than that for the parent strain (0.2 mg/ml versus 0.4 mg/ml). […] Thus, the sapF gene product is not required for growth in enriched media, and the lack of growth of the sapF mutants at the lower protamine concentrations in sBHI broth was not due to a growth defect. Therefore, the sapF mutation may be responsible for the phenotype of increased sensitivity to protamine, and the in vivo attenuation property of the sapF mutant.

[1] = test system: NTHi parent strain 86-028NP; assay: as above; format: cell-based, nontypeable Haemophilus influenzae; settings: aerobic growth in sBHI broth
Protocol: as §1

protamine was tested, and the “sensitivity of mutant to the action of protamine” value (NTHi sapF::mTn5 mutants; sapF::mTn5 mutant, more sensitive (relative to parent strain)) was 3 fold, the MIC of protamine (NTHi sapF::mTn5 mutants; sapF::mTn5 mutants, aerobic growth in sBHI broth) was 200 µg/mL and the MIC of protamine [1] was 400 µg/mL.
